Test results as given in PMC7915724 (2021).
Each block holds one compound with its values, some of them ahead of it.

Assays:
[1] = system: FPy24 (DNA, i motif) GACCCCGCCCCCGGCCCGCCCCGG; test: MST; details: 100 mM KCl (annealing buffer); 1 μM DNA; assay pH not stated
[2] = system: FKRAS (DNA, i motif) GCCCGGCCCCCGCTCCTCCCCCGCCGGCCCGGCCCGGCCCCCTCCTTCTCCCCG; test: MST; details: 100 mM KCl (annealing buffer); 1 μM DNA; assay pH not stated
[3] = system: FHairpin (duplex DNA) (DNA, hairpin, HEG linker between nucleotides 10 and 11 (joins the two TATAGCTATA halves)) TATAGCTATATATAGCTATA; test: MST; details: 1 μM DNA; assay buffer not stated
[4] = system: Py24 (VEGF i-motif) (DNA, i motif) GACCCCGCCCCCGGCCCGCCCCGG; test: ITC; details: 100 mM KCl, 30 mM KH2PO4, 30 mM K2HPO4; 1× BPES (1 mM EDTA) pH 5.0, 30 °C; Py24 titrated into 3c; one-site fit
[5] = system: Fc-kit (DNA, i motif) CCCCTCCCTCGCGCCCGCCCG; test: MST; details: 100 mM KCl (annealing buffer); 1 μM DNA; assay pH not stated
[6] = system: biotin-Hairpin (duplex DNA) (DNA, hairpin, HEG linker between nucleotides 10 and 11 (joins the two TATAGCTATA halves)) TATAGCTATATATAGCTATA; test: SPR; details: 100 mM KCl; 20 mM Tris-HCl pH 7.4, 25 °C; tested up to 50 μM
[7] = system: PDGFR-β (DNA, i motif) GCGTCCACCCTCCCTGCCCCGCCGCCCCCCCTTCTCCCAGC; test: TO displacement, fluorescence; details: 100 mM KCl (annealing buffer); 1 μM DNA, 2 μM thiazole orange displaced; b21 gives lower bound of range as 8.01
[8] = system: FPu24 (DNA, G4) CCGGGGCGGGCCGGGGGCGGGGTC; test: MST; details: 100 mM KCl (annealing buffer); 1 μM DNA; assay pH not stated
[9] = system: c-kit (DNA, i motif) CCCCTCCCTCGCGCCCGCCCG; test: TO displacement, fluorescence; details: 100 mM KCl (annealing buffer); 1 μM DNA, 2 μM thiazole orange displaced; assay pH not stated
[10] = system: Pu24 (VEGF G-quadruplex) (DNA, G4) CCGGGGCGGGCCGGGGGCGGGGTC; test: TO displacement, fluorescence; details: 100 mM KCl (annealing buffer); 1 μM DNA, 2 μM thiazole orange displaced; assay pH not stated
[11] = system: KRAS (DNA, i motif) GCCCGGCCCCCGCTCCTCCCCCGCCGGCCCGGCCCGGCCCCCTCCTTCTCCCCG; test: TO displacement, fluorescence; details: 100 mM KCl (annealing buffer); 1 μM DNA, 2 μM thiazole orange displaced; assay pH not stated
[12] = system: biotin-Py24 (VEGF i-motif) (DNA, i motif) GACCCCGCCCCCGGCCCGCCCCGG; test: SPR; details: 100 mM KCl, 20 mM MES pH 5.5, 0.05% Tween-20, 25 °C
[13] = system: BCL2 (DNA, i motif) CAGCCCCGCTCCCGCCCCCTTCCTCCCGCGCCCGCCCCT; test: TO displacement, fluorescence; details: 100 mM KCl (annealing buffer); 1 μM DNA, 2 μM thiazole orange displaced; assay pH not stated
[14] = system: biotin-Pu24 (VEGF G-quadruplex) (DNA, G4) CCGGGGCGGGCCGGGGGCGGGGTC; test: SPR; details: 100 mM KCl; 20 mM Tris-HCl pH 7.4, 25 °C; tested up to 50 μM
[15] = system: Py24 (VEGF i-motif) (DNA, i motif) GACCCCGCCCCCGGCCCGCCCCGG; test: TO displacement, fluorescence; details: 100 mM KCl (annealing buffer); 1 μM DNA, 2 μM thiazole orange displaced; assay pH not stated
[16] = system: FBCL2 (DNA, i motif) CAGCCCCGCTCCCGCCCCCTTCCTCCCGCGCCCGCCCCT; test: MST; details: 100 mM KCl (annealing buffer); 1 μM DNA; assay pH not stated
[17] = system: FPDGFR-β (DNA, i motif) GCGTCCACCCTCCCTGCCCCGCCGCCCCCCCTTCTCCCAGC; test: MST; details: 100 mM KCl (annealing buffer); 1 μM DNA; assay pH not stated
[18] = system: biotin-Hairpin (duplex DNA) (DNA, hairpin, HEG (hexaethylene glycol) linker between 10 and 11) TATAGCTATATATAGCTATA; test: SPR; details: 100 mM KCl; 20 mM Tris-HCl pH 7.4, 25 °C; tested up to 50 μM
[19] = system: biotin-Pu24 (VEGF G-quadruplex) (DNA, G4) CCGGGGCGGGCCGGGGGCGGGGTC; test: SPR; details: 100 mM KCl; 20 mM Tris-HCl pH 7.4, 25 °C; tested up to 50 μM; remark: listed apart in the source

KD [1]: 1.14 µM
KD [2]: 37.8 µM
KD [3]: 91.4 µM
KD [4]: 1.13 µM
KD [5]: 43.3 µM
KD [6]: > 50 µM
DC50 [7]: 8.08 µM
KD [8]: 47.9 µM
DC50 [9]: 14.7 µM
DC50 [10]: 8.29 µM
DC50 [11]: 13.1 µM
KD ([12]; b20 prints 1.93): 1.95 µM
DC50 [13]: 16.1 µM
KD [14]: > 50 µM
DC50 [15]: 3.19 µM
KD [16]: 95.1 µM
KD [17]: 14.4 µM
Structure (SMILES): CC1(C)CC[C@]2(C(=O)NCCCNCCNCCCN)CC[C@]3(C)C(=CC[C@@H]4[C@@]5(C)CC[C@H](O)C(C)(C)[C@@H]5CC[C@]43C)[C@@H]2C1

KD [6]: > 50 µM
KD [12]: 3.09 µM
KD [14]: > 50 µM
Structure (SMILES): CC1(C)CC[C@]2(C(=O)NCCNC(=O)/C=C/c3ccc(O)c(O)c3)CC[C@]3(C)C(=CC[C@@H]4[C@@]5(C)CC[C@H](O)C(C)(C)[C@@H]5CC[C@]43C)[C@@H]2C1

KD ([12]; tested up to 50 μM): > 50 µM
KD [18]: > 50 µM
KD [19]: > 50 µM
Structure (SMILES): CCN(CC)CCNC(=O)C1=C[C@]2(C)[C@H]3CC=C4[C@@H]5CC(C)(C)CC[C@]5(C(=O)OC)CC[C@@]4(C)[C@]3(C)CC[C@H]2C(C)(C)C1=O

KD [6]: > 50 µM
KD [12]: 5.01 µM
KD [14]: > 50 µM
Structure (SMILES): Cc1cn(CC(=O)NCCCNCCNCCCNC(=O)[C@]23CCC(C)(C)C[C@H]2C2=CC[C@@H]4[C@@]5(C)CC[C@H](O)C(C)(C)[C@@H]5CC[C@@]4(C)[C@]2(C)CC3)c(=O)[nH]c1=O
